This is an account of results in PMC8504695, “Structure-Based Virtual Screening and Identification of Potential Inhibitors of SARS-CoV-2 S-RBD and ACE2 Interaction” (Frontiers in Chemistry, 2021).

Series [1] deals with SARS-CoV-2 S-RBD/ACE2 interaction (UniProt P0DTC2+Q9BYF1). The series can be described thus: cell-based. Further details: species or system SARS-CoV-2 / human. The conditions noted are these: for inhibition at 20 µM / inhibition at 50 µM: HEK293; for pIC50: HEK293 cells, 3 h incubation, n = 3, read-out: IC50 NanoBiT (inhibition of SARS-CoV-2 S-RBD/ACE2 interaction).
SARS-CoV-2 S-RBD/ACE2 interaction, sequence (Q9BYF1 19-615 limits assumed, other chains not shown): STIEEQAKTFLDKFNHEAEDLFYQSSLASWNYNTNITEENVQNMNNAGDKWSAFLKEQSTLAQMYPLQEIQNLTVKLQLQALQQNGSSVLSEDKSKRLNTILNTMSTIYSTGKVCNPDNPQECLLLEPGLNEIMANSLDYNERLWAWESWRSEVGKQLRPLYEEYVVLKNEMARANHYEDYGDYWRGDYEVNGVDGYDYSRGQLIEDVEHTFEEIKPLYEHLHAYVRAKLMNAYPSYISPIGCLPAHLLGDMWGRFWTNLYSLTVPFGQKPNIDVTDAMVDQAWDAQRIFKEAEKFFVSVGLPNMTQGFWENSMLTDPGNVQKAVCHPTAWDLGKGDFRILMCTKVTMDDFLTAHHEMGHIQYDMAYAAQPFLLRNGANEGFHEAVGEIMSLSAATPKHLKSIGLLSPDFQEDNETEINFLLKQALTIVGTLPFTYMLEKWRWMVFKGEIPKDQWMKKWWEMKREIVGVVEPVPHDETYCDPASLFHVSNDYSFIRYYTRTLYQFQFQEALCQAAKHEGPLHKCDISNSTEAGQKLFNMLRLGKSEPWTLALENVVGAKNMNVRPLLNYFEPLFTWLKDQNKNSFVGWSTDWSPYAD
In another series the target is NanoLuc luciferase (Oplophorus gracilirostris, UniProt Q9GV45, A31E/A60N/A81I/F95D/I117V/K70R/L54V/L99Q/M102K/N193R/P142E/Q151K/Q38R/Q45L/V71I/Y165I). The series can be described thus: cell-based. Particulars: read-out: IC50 NanoLuc (inhibition of NanoLuc luciferase).
NanoLuc luciferase, sequence (Q9GV45 other isoform, or with tags, fused parts or gaps with the stated changes): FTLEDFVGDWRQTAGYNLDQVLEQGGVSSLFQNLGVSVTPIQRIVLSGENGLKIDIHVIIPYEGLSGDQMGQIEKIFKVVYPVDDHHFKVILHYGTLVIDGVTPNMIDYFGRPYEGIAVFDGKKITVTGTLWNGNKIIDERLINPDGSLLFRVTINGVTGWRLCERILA
The subject of a further series is SARS-CoV-2-S pseudovirus. The series can be described thus: microbe, parasite or virus in culture. The format is cell-based. Particulars: for pIC50: Pseudovirus, HEK-293T, read-out: IC50 of Anti-SARS-CoV-2-S pseudovirus; for %I, SARS-CoV-2-S pseudovirus inhibition ratio at MNCC: fitted from the inhibition curve.
Another series has as its target human ACE2 (Homo sapiens, UniProt Q9BYF1). The series can be described thus: SPR binding assay, immobilized ACE2 (BIAcore T200). Particulars: for pKd: immobilized ACE2, PBS pH 7.4, 25°C; for Binding to human ACE2 by SPR (in words): up to 100,000 nM analyte. How it is done:
A BIAcore T200 instrument (GE Healthcare Life Sciences, United States) was used to evaluate the binding affinity of the test compounds to human ACE2 or SARS-CoV-2 S-RBD as previously described ([Li et al., 2017]). Briefly, both proteins were respectively immobilized on the different channels of CM5 sensor chip by a standard amine-coupling approach at a flow rate of 10 μL/min in 10 mM sodium acetate buffer (pH 4.0). The sensor surface was activated with a 7 min injection of the mixture of 50 mM N-hydroxysuccinimide (NHS) and 200 mM 1-ethyl-3-(3-dimethylaminopropyl) carbodiimide (EDC). Then 10 μg/ml of human ACE2 or 50 μg/ml of SARS-CoV-2 S-RBD was injected for 420 s and the surface was blocked with 1 M ethanolamine, pH 8.5. Series concentrations of the test compounds were injected into the flow system at a flow rate of 30 μL/min for 90 s, and the dissociation was 120 s. All binding analysis was performed in phosphate buffered saline (PBS) with 0.05% (v/v) Tween-20 and 1% DMSO (pH 7.4) at 25°C. Prior to analysis, double reference subtractions and solvent corrections were made to eliminate bulk refractive index changes, injection noise, and data drift. The binding affinity was determined by fitting to a Langmuir 1:1 binding model within the BIAcore Evaluation software (GE Healthcare Life Sciences, United States).

For another series, the target named is SARS-CoV-2 S-RBD (Severe acute respiratory syndrome coronavirus 2, UniProt P0DTC2). The series can be described thus: SPR binding assay, immobilized S-RBD (BIAcore T200). The conditions noted are these: for pKd: immobilized S-RBD, PBS pH 7.4, 25°C; for Binding to SARS-CoV-2 S-RBD by SPR (in words): up to 100,000 nM analyte. On the technique in general: SPR reads the build-up and loss of mass on a sensor chip optically.

The next series concerns HEK293 cells. Particulars: human.
For series [2], the system named is ACE2-expressing HEK293T cells. Particulars: concentration required to retain cell viability by 90%.
The next series can be described thus: in vitro. Particulars: human.
In a further series the test system is SARS-CoV-2 pseudovirus. The conditions noted are these: cited from earlier work.

pIC50, pKd: −log10 of the molar value.

human ACE2, sequence (Q9BYF1 18-805): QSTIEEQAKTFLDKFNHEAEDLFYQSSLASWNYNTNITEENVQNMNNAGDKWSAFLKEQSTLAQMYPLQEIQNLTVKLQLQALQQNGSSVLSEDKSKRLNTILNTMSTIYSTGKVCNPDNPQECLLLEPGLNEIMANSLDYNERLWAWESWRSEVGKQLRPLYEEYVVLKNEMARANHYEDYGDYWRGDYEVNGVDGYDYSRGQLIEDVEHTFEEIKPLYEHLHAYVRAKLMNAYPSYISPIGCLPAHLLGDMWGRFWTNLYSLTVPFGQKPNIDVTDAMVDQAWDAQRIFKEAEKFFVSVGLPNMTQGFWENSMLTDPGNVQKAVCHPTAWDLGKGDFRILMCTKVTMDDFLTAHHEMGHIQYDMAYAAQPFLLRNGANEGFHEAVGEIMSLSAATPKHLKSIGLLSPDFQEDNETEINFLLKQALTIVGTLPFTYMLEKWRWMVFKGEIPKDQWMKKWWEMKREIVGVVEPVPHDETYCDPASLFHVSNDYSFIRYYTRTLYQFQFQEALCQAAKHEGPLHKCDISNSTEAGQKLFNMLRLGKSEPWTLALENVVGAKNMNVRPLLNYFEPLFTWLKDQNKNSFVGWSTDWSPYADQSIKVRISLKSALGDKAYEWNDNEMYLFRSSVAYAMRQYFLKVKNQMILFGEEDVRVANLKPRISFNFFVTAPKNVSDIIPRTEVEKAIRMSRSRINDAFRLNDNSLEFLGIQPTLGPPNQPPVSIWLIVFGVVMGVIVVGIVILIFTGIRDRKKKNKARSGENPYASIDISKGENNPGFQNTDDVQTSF

Broadly, the inhibition is the relative decrease from the control value, in per cent. Turning to `O=C(N/N=C/c1cc([N+](=O)[O-])ccc1Cl)c1cccc(Br)c1` [DC-RA016-1], in series [1], the inhibition at 20 µM is 3.1% and the inhibition at 50 µM was determined as 7.4%.
On the same counts, the results for `O=C(N/N=C/c1cc([N+](=O)[O-])ccc1Cl)c1ccccc1I` [DC-RA016-2] are 0.8% and 22.5%.
On the same counts, the results for `O=C(N/N=C/c1cc([N+](=O)[O-])ccc1Cl)c1cccc([N+](=O)[O-])c1` [DC-RA016-3] are 1.7% and 24.2%.
On the same counts, the results for `Cc1ccccc1C(=O)N/N=C/c1cc([N+](=O)[O-])ccc1Cl` [DC-RA016-4] are -3.8% and -24.9%.
As to `O=C(N/N=C/c1cc([N+](=O)[O-])ccc1Cl)c1ccccc1O` [DC-RA016-5], in [1], the inhibition at 20 µM was determined as 8.7% and the inhibition at 50 µM is 24.9%.
On the same counts, the results for `O=C(N/N=C/c1cc([N+](=O)[O-])ccc1Cl)c1ccc(O)cc1O` [DC-RA016-6] are 1.9% and 2.9%.
On the same counts, the results for `O=C(N/N=C/c1cc([N+](=O)[O-])ccc1Cl)c1ccc(O)cc1` [DC-RA016-7] are 10.6% and 20.2%.
On the same counts, the results for `O=C(N/N=C/c1cc([N+](=O)[O-])ccc1Cl)c1ccc(O)c(O)c1` [DC-RA016-8] are 6.7% and -18.3%.
Consider `O=C(N/N=C/c1ccccc1O)c1cc(O)cc(O)c1` [DC-RA016-9], for which, in [1], the inhibition at 20 µM was 0.6%, the inhibition at 50 µM is 88.6% and the pIC50 is 4.13.
As for `Cc1ccccc1/C=N/NC(=O)c1cc(O)cc(O)c1` [DC-RA016-10], in [1], the inhibition at 20 µM was -6.5% and the inhibition at 50 µM is -17.7%.
For `Cc1cccc(/C=N/NC(=O)c2cc(O)cc(O)c2)c1` [DC-RA016-11] the same measures were 4.8% and 12.7%.
As for `O=C(N/N=C/c1ccc(Cl)c([N+](=O)[O-])c1)c1cc(O)cc(O)c1` [DC-RA016-12], in [1], the inhibition at 20 µM is 61.3%, the inhibition at 50 µM stood at 88.9% and the pIC50 was 4.58.
For orientation: pKd means the negative decadic logarithm of the Kd, by convention in mol/L. Read a high pKd as a small Kd. Turning to `O=C(N/N=C/c1cc([N+](=O)[O-])ccc1Cl)c1cc(O)cc(O)c1` [DC-RA016], in series [1], the inhibition at 20 µM came to 73.1%, the inhibition at 50 µM is 73.1% and the pIC50 is 4.57. In addition, the pIC50 at NanoLuc luciferase is less than 4.00. In the series on SARS-CoV-2-S pseudovirus, the “SI, selectivity index” value is given as more than 4.46; the pIC50 was 4.65; the “%I, SARS-CoV-2-S pseudovirus inhibition ratio at MNCC” value was 52.08%. Besides, at human ACE2, the pKd was 3.83 and the “Binding to human ACE2 by SPR (in words)” value is reported as “could bind”. Besides, at SARS-CoV-2 S-RBD, the pKd was 4.07 and the “Binding to SARS-CoV-2 S-RBD by SPR (in words)” value (“Binding to SARS-CoV-2 S-RBD” below) is “showed binding”. The “CC50 / IC50 Cytotox (HEK293 cell proliferation)” value (“CC50 / IC50 Cytotox” below) in the series on HEK293 cells was more than 100.00 µM. The “MNCC, maximum non-cytotoxic concentration” value in series [2] is 95.81 µM. For the same compound, in “in vitro”, the CC50 is more than 100 µM.
`COc1ccc(C(=O)C[C@]2(O)C(=O)N(CCOc3ccccc3OC)c3ccccc32)c(OC)c1` [DC-RA076]: the pIC50 was 4.12 in series [1], less than 4.00 on NanoLuc luciferase and 5.08 in the series on SARS-CoV-2-S pseudovirus. The “SI, selectivity index” value in the series on SARS-CoV-2-S pseudovirus is 2.95. In addition, in the series on SARS-CoV-2-S pseudovirus, the “%I, SARS-CoV-2-S pseudovirus inhibition ratio at MNCC” value is 5.75%. The “Binding to human ACE2 by SPR (in words)” value at human ACE2 is listed as “no binding”. Besides, the “Binding to SARS-CoV-2 S-RBD” value at SARS-CoV-2 S-RBD is “no binding”. The “CC50 / IC50 Cytotox” value in the series with HEK293 cells was more than 100.00 µM. For the same compound, the “MNCC, maximum non-cytotoxic concentration” value in series [2] is 2.64 µM. This compound gave a CC50 in the series “in vitro” of 24.7 µM.
As for `COc1cc(-c2nc3ccccc3s2)ccc1OCC(=O)Nc1ccc(C)cc1` [DC-RA087], in series [1], the pIC50 is 4.06. The pIC50 at NanoLuc luciferase is less than 4.00. In the series with SARS-CoV-2-S pseudovirus, the “SI, selectivity index” value is given as more than 4.75; the pIC50 is 4.68; the “%I, SARS-CoV-2-S pseudovirus inhibition ratio at MNCC” value stood at 36.74%. In addition, the “kd to ACE2 (SPR)” value on human ACE2 (immobilized ACE2) stood at 0.3217 s⁻¹. Moreover, the kon at human ACE2 (pH 7.4, immobilized ACE2, read-out: ka to ACE2 (SPR)) stood at 56.4 M⁻¹ s⁻¹. Moreover, on human ACE2, the “Binding to human ACE2 by SPR (in words)” value is “could bind”. Besides, the “Binding to SARS-CoV-2 S-RBD” value at SARS-CoV-2 S-RBD is listed as “No binding”. For the same compound, in the series with HEK293 cells, the “CC50 / IC50 Cytotox” value was more than 100.00 µM. The “MNCC, maximum non-cytotoxic concentration” value in series [2] turned out to be 14.01 µM. The compound further yielded a CC50 in the series “in vitro” of more than 100 µM.
With `CCOc1ccc(N(CC(=O)Nc2ccccc2C(=O)NCc2ccco2)S(=O)(=O)c2ccc(OC)c(OC)c2)cc1` [DC-RA106], the pIC50 in series [1] is 4.61. The pIC50 on NanoLuc luciferase is less than 4.00. Also, in the series with SARS-CoV-2-S pseudovirus, the “SI, selectivity index” value is more than 1.41; the pIC50 was 4.15; the “%I, SARS-CoV-2-S pseudovirus inhibition ratio at MNCC” value is given as 0.14%. In addition, at human ACE2, the pKd is less than 4.00 and the “Binding to human ACE2 by SPR (in words)” value is given as “could bind”. Also, at SARS-CoV-2 S-RBD, the pKd is less than 4.00 and the “Binding to SARS-CoV-2 S-RBD” value is recorded as “showed binding”. Moreover, the “CC50 / IC50 Cytotox” value in the series on HEK293 cells is more than 100.00 µM. Besides, the “MNCC, maximum non-cytotoxic concentration” value in [2] was found to be 13.24 µM. The same compound yielded a CC50 in “in vitro” of more than 100 µM.
Turning to `C=Cc1c(C)c2cc3nc(cc4[nH]c(cc5nc(cc1[nH]2)C(C)=C5CCC(=O)O)c(CCC(=O)OC)c4C)[C@@]1(C)C3=CC=C(C(=O)OC)[C@H]1C(=O)OC` [Visudyne], in the series with SARS-CoV-2 pseudovirus (cytotoxicity data not reported, ref Fu et al., 2020), the “Antiviral activity against SARS-CoV-2 pseudovirus (in words)” value is listed as “intense antiviral activity”.
With `C[C@@]1(C(=O)O)CC[C@]2(C)CC[C@]3(C)C4=CC(=O)c5c(cc(O)c(O)c5C=O)[C@]4(C)CC[C@@]3(C)[C@@H]2C1` [demethylzeylasteral], in the series with SARS-CoV-2 pseudovirus (under nontoxic concentration, ref Zhu et al., 2021), the “Inhibitory activity against SARS-CoV-2 pseudovirus” value is “approximately 7%”.
